Results on twelve compounds are retold here after ChEMBL document CHEMBL5291721, “A preclinical secondary pharmacology resource illuminates target-adverse drug reaction associations of marketed drugs” (Nat Commun, 2023).

Assay [1] addresses T1, Peroxisome proliferator-activated receptor gamma (Homo sapiens, UniProt P37231).
T1 sequence (P37231 whole entry): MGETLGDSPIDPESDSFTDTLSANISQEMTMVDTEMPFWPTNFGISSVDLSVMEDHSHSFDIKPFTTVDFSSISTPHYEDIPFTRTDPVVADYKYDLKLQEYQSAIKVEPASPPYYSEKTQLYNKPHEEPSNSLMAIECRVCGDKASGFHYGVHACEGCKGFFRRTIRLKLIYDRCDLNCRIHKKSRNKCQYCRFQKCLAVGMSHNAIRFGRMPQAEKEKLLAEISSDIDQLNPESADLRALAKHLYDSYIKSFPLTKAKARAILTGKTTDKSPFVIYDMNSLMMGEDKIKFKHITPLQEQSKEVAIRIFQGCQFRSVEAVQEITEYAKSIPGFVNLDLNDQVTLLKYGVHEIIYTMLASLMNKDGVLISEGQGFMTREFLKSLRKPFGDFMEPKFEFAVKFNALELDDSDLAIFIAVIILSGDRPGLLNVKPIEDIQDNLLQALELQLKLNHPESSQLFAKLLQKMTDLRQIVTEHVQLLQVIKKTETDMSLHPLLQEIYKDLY
The class given is functional.

Assay [2] addresses T2, Muscarinic acetylcholine receptor M1 (Homo sapiens, UniProt P11229).
T2 sequence (P11229 whole entry): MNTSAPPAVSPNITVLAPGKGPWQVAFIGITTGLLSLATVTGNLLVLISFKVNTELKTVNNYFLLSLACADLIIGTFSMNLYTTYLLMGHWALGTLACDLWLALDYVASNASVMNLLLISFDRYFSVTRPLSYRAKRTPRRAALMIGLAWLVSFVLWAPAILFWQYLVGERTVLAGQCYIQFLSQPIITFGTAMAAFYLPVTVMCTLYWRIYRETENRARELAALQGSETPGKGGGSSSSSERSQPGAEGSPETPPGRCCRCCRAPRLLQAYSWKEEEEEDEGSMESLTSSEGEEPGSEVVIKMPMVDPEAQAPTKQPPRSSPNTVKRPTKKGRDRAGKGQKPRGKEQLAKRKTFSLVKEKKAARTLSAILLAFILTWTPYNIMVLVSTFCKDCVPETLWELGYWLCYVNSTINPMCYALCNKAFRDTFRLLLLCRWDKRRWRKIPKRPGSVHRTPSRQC
The class given is functional.

The target in assay [3] is Gamma-aminobutyric acid receptor subunit alpha-1/alpha-2/beta-2/gamma-2 (Homo sapiens, UniProt P14867+P18507+P47869+P47870). It is filed as protein-complex assay.
Gamma-aminobutyric acid receptor subunit alpha-1/alpha-2/beta-2/gamma-2, sequence (P14867 whole entry): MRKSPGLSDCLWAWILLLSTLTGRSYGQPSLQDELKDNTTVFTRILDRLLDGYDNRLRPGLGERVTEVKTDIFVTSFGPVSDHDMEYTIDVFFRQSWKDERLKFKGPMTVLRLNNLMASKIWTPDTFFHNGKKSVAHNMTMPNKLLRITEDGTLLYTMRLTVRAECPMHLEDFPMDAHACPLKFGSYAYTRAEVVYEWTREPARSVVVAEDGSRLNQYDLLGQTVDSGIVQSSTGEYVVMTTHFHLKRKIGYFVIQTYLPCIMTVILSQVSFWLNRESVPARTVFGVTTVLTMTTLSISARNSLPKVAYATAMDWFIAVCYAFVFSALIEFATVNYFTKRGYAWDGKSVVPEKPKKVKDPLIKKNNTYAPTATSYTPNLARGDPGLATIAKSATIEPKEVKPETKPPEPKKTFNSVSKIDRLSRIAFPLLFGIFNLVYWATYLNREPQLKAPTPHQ
Gamma-aminobutyric acid receptor subunit alpha-1/alpha-2/beta-2/gamma-2, sequence (P47870 whole entry): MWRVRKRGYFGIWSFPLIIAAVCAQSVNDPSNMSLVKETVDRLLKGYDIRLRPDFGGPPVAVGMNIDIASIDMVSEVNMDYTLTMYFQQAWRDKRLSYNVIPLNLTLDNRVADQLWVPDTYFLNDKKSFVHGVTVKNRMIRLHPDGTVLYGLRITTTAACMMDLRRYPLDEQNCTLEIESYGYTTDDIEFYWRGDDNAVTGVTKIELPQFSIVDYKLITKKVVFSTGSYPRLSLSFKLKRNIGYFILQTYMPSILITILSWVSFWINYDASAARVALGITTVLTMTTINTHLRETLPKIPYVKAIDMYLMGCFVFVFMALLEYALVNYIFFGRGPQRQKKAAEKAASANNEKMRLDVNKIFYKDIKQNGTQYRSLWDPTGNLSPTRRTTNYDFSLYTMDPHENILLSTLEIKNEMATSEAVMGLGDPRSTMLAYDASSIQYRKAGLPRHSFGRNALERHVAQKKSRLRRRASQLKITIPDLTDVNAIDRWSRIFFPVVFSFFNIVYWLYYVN
Gamma-aminobutyric acid receptor subunit alpha-1/alpha-2/beta-2/gamma-2, sequence (P18507 whole entry): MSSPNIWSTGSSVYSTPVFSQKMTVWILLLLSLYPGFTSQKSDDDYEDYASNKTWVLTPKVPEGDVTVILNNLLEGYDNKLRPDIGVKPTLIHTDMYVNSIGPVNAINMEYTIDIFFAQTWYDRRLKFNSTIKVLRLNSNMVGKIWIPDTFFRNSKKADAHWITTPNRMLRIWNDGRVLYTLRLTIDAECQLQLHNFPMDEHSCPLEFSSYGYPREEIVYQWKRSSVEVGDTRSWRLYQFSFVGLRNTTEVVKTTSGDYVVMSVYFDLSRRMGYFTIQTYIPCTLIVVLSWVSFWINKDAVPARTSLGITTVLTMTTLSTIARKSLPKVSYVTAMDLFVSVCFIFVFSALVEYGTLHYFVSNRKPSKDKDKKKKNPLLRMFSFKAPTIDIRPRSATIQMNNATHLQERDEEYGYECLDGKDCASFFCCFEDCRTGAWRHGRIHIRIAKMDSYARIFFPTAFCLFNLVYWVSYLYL
Gamma-aminobutyric acid receptor subunit alpha-1/alpha-2/beta-2/gamma-2, sequence (P47869 whole entry): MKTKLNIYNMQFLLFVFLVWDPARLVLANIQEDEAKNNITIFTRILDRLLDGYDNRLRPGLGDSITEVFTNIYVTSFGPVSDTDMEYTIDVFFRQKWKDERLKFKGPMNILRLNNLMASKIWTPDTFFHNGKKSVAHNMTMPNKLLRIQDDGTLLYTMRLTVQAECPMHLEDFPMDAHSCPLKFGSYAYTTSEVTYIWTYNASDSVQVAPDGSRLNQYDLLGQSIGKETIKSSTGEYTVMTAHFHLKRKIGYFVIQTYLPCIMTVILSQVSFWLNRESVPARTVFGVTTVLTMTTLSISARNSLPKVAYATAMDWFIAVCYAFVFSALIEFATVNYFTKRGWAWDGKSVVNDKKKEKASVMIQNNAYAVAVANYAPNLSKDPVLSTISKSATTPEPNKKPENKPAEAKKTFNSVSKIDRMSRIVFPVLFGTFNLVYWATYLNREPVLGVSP
In assay [4] the target is T3, Alpha-1A adrenergic receptor (Homo sapiens, UniProt P35348).
T3 sequence (P35348 whole entry): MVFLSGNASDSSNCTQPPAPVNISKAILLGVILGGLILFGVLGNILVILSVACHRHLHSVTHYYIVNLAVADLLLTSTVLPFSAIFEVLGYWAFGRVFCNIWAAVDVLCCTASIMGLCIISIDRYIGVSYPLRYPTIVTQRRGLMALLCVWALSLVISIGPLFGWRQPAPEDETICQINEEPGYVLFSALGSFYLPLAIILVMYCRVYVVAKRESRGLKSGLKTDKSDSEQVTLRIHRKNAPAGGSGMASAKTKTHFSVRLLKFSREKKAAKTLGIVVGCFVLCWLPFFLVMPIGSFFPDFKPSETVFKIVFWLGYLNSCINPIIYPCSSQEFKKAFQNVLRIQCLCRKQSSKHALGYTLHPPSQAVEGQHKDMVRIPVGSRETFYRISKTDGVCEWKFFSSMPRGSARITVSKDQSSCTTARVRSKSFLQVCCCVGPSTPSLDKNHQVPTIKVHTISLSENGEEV

In assay [5] the target is T4, Muscarinic acetylcholine receptor M2 (Homo sapiens, UniProt P08172).
T4 sequence (P08172 whole entry): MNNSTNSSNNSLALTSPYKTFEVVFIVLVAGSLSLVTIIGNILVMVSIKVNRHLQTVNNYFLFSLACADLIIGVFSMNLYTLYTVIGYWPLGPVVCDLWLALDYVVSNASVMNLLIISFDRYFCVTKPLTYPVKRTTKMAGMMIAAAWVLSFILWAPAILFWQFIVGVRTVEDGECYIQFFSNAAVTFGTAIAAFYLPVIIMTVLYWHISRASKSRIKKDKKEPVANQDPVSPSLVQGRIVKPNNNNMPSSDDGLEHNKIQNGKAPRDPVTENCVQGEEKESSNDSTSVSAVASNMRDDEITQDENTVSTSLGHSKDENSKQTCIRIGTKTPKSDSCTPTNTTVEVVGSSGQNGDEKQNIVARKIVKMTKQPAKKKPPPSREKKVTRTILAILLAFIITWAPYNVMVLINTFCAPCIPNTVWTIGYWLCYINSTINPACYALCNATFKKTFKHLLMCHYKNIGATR

Assay [6] deals with T5, Endothelin receptor type B (Homo sapiens, UniProt P24530).
T5 sequence (P24530 whole entry): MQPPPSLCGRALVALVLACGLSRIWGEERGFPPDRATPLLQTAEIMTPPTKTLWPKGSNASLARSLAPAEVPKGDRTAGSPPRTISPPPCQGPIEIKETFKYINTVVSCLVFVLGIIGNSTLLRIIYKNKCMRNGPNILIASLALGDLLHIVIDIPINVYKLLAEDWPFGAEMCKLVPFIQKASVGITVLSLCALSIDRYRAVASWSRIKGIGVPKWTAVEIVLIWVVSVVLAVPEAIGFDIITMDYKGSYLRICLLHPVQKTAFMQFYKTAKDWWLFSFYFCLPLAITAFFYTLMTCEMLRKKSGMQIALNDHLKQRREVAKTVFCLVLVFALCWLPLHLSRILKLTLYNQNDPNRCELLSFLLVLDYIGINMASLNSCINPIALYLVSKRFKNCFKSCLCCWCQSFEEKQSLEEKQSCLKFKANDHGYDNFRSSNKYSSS

Assay [7] deals with Voltage-dependent N-type calcium channel subunit alpha-1B (Rattus norvegicus, UniProt Q02294). The class given is functional.
Voltage-dependent N-type calcium channel subunit alpha-1B, sequence (Q02294 whole entry): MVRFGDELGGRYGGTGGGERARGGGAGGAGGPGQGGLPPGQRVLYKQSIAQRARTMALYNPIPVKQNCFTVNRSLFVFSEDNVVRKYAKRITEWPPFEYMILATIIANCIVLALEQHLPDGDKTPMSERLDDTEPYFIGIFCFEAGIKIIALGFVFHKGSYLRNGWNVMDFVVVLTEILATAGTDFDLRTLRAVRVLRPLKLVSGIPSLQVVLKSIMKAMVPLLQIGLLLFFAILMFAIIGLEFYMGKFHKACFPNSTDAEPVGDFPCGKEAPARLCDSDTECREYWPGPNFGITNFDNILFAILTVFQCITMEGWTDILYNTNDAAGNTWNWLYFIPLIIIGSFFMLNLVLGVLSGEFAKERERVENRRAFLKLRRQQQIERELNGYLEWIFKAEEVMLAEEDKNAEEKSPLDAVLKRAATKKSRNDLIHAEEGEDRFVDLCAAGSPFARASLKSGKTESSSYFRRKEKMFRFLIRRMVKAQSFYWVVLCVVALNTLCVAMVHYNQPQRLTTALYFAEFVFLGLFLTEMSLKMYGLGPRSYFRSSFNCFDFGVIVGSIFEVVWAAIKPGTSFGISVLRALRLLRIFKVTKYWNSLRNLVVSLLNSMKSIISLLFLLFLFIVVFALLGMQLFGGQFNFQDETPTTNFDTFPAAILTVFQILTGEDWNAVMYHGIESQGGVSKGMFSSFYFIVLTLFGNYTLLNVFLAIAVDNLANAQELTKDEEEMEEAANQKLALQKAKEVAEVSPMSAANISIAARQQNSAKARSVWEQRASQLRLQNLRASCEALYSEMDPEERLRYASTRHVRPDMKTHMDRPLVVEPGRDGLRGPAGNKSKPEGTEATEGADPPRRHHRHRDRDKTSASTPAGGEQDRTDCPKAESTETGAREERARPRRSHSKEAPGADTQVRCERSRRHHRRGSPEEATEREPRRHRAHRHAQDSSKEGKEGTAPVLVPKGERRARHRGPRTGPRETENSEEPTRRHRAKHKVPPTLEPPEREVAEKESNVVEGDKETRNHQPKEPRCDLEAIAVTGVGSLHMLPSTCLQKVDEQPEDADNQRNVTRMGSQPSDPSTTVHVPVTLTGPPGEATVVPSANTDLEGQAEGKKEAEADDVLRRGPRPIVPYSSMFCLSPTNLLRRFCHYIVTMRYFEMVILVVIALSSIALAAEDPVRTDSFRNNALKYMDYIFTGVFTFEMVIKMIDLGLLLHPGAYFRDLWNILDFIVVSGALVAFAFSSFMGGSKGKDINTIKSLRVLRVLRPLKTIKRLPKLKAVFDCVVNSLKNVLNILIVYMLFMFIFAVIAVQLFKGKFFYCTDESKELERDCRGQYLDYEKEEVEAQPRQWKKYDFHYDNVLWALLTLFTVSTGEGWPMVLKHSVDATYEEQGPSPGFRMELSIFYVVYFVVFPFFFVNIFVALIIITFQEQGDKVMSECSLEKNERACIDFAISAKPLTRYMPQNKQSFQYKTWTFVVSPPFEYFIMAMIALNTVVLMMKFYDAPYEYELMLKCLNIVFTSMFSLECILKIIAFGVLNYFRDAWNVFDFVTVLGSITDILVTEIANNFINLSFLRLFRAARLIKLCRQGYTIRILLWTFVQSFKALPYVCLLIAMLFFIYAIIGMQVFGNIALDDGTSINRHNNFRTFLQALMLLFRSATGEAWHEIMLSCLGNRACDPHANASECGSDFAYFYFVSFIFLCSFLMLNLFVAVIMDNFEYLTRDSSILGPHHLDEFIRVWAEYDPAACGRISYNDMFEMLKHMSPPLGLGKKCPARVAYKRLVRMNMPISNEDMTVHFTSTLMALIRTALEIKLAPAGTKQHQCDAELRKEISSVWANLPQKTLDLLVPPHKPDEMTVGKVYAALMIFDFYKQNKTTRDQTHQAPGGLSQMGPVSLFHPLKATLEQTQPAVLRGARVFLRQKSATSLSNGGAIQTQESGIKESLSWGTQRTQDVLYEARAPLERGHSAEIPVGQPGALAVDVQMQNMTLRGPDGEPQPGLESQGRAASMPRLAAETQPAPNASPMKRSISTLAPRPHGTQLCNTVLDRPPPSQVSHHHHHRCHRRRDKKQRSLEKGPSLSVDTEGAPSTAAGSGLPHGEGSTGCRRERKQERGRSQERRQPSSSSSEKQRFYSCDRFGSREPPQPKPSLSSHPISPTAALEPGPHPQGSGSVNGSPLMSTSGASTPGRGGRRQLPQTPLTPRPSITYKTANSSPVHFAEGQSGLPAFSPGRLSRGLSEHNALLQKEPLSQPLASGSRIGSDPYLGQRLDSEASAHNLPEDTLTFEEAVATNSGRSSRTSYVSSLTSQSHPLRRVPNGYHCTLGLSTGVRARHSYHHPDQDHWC
In assay [8] the target is 5-hydroxytryptamine receptor 2B (Homo sapiens, UniProt P41595).
5-hydroxytryptamine receptor 2B, sequence (P41595 whole entry): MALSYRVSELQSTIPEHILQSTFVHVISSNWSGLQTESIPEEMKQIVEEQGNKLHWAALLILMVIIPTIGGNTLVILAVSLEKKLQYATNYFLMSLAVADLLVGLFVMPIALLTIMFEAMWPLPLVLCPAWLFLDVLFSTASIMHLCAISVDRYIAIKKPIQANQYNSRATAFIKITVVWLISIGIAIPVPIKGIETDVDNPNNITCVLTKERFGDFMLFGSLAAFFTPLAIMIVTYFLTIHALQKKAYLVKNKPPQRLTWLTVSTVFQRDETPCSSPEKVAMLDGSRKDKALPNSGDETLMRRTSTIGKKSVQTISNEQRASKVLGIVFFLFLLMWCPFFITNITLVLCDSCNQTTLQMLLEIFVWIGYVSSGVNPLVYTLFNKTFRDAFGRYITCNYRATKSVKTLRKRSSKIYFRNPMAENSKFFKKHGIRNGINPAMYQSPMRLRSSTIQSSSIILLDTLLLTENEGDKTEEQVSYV
A further assay concerns the target T6, Adenosine receptor A1 (Homo sapiens, UniProt P30542).
T6 sequence (P30542 whole entry): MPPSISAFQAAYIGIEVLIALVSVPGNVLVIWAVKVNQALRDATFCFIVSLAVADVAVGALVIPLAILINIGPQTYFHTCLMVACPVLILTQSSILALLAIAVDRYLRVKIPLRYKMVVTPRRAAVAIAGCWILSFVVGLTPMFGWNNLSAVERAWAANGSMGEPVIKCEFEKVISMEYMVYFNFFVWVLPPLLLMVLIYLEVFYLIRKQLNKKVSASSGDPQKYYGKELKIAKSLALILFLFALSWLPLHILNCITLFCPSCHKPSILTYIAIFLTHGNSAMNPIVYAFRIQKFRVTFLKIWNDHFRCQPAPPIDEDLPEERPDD
Note: assay procedure not described here.

In general, AC50 refers to the concentration giving half of the maximal activity seen. Regarding `CCN1CCN(Cc2ccc(Nc3ncc(F)c(-c4cc(F)c5nc(C)n(C(C)C)c5c4)n3)nc2)CC1` [ABEMACICLIB], the AC50 in [1] and in [2] was over 30 µM in each case.
For the compound `COc1cc2nccc(Oc3ccc(NC(=O)C4(C(=O)Nc5ccc(F)cc5)CC4)cc3)c2cc1OC` [CABOZANTINIB], the AC50 in assay [3], in assay [1] and in assay [2] was over 30 µM throughout.
With `COc1ccccc1OCCNCC(O)COc1cccc2[nH]c3ccccc3c12` (centres undefined) [CARVEDILOL], the half-maximal activity concentration (AC50) was 0.0194 µM in assay [4]; over 10 µM in assay [5]; over 30 µM in assay [6]; 28 µM in [1]; over 10 µM in [7]; 0.0101 µM in [8].
Turning to `C[C@@H](Oc1cc(-c2cnn(C3CCNCC3)c2)cnc1N)c1c(Cl)ccc(F)c1Cl` [CRIZOTINIB], the AC50 was over 10 µM in assay [5], over 30 µM in [1], over 30 µM in assay [2] and 0.316 µM in assay [8].
In [1], `CN1C[C@H](C(=O)N[C@]2(C)O[C@@]3(O)[C@@H]4CCCN4C(=O)[C@H](Cc4ccccc4)N3C2=O)C=C2c3cccc4[nH]cc(c34)C[C@H]21` [ERGOTAMINE] yielded a half-maximal activity concentration (AC50) of over 30 µM.
As for `CC(C)c1nc(N(C)S(C)(=O)=O)nc(-c2ccc(F)cc2)c1/C=C/[C@@H](O)C[C@@H](O)CC(=O)O` [ROSUVASTATIN], the AC50 in assay [1] and in assay [2] was over 30 µM each time.
As for `N[C@@H](CC(=O)N1CCn2c(nnc2C(F)(F)F)C1)Cc1cc(F)c(F)cc1F` [SITAGLIPTIN], the concentration at half-maximal activity (AC50) is over 10 µM in [5]; over 10 µM in [6]; over 30 µM in [1]; over 10 µM in [7]; over 30 µM in [2]; over 10 µM in assay [8].
Take `OC[C@H]1O[C@@](CO)(O[C@H]2O[C@H](CO)[C@@H](O)[C@H](O)[C@H]2O)[C@@H](O)[C@@H]1O` [SUCROSE]: the half-maximal activity concentration (AC50) (in assay [1]; in assay [2]; at Adenosine receptor A1) was over 30 µM in each case.
For `C=CC[C@@H]1/C=C(\C)C[C@H](C)C[C@H](OC)[C@H]2O[C@@](O)(C(=O)C(=O)N3CCCC[C@H]3C(=O)O[C@H](/C(C)=C/[C@@H]3CC[C@@H](O)[C@H](OC)C3)[C@H](C)[C@@H](O)CC1=O)[C@H](C)C[C@@H]2OC` [TACROLIMUS ANHYDROUS], the concentration at half-maximal activity (AC50) in assay [4] was over 10 µM; in assay [5], over 10 µM; in [6], over 30 µM; in assay [1], over 30 µM; in assay [7], over 10 µM; in [8], over 10 µM.
On to `CC(S)C(=O)NCC(=O)O` (centres undefined) [TIOPRONIN], for which the AC50 in [1] and in assay [2] was over 30 µM in each case.
For the compound `C[C@H](CCC(=O)O)[C@H]1CC[C@H]2[C@@H]3[C@@H](O)C[C@@H]4C[C@H](O)CC[C@]4(C)[C@H]3CC[C@]12C` [URSODIOL], the AC50 in [1] and in assay [2] was over 30 µM throughout.
As for `Cc1onc(-c2ccccc2)c1-c1ccc(S(N)(=O)=O)cc1` [VALDECOXIB], the AC50 is over 30 µM in assay [3]; over 10 µM in assay [4]; over 10 µM in assay [5]; over 30 µM in [6]; over 30 µM in assay [1]; over 10 µM in [7]. Besides, in assay [8], the AC50 was over 10 µM.
